# Experimental data from US7550497B2, “Phosphoramide derivatives” (Palau Pharma, S.A., priority 2002, dated 2009).
# Experiments:
# [1] = tested on: carrageenan-induced paw edema; experiment: Rat carrageenan-induced paw edema assay; assay type: in vivo; conditions: male Sprague Dawley rats, 3 mg/kg i.v., 10 min before carrageenan, paw volume 1-4 h
# Method: Test 1.—Rat Carrageenan-Induced Paw Edema Assay
# Male Sprague Dawley rats (150-175 g) are used. The animals are fasted during 18 hours prior to the experiment and kept with water ad libitum, and are randomly distributed into the different groups of treatment. Inflammation is induced by injecting 0.1 mL of 1% λ-carrageenan solution (Sigma) to the animals' right hindpaw, and the inflammatory response (increase in paw volume) is measured with a plethysmometer (UGO BASILE). Paw volumes are measured just before the administration of test compounds and at 1, 2, 3 and 4 hours after the injection of carrageenan. The compounds are administered through the tail vein, dissolved in DMSO and saline (1 mL/Kg), 10 minutes before the injection of carrageenan. At the same time, 5 mL of water are administered by the oral route in order to facilitate hydration and subsequent inflammatory reaction. The percentages of inhibition of the different treatments tested are calculated by comparing the area under the curve obtained for the treated animals versus the one obtained for the control group. Said areas are obtained by integration from a graphical representation of paw volume versus time.
# The results obtained with representative compounds of the present invention are shown in the following table, where the % of inhibition of inflammation at a dose of 3 mg/kg i.v. of test compound are reported.
# [2] = tested on: carrageenan-induced hyperalgesia; experiment: Rat carrageenan-induced hyperalgesia test; assay type: in vivo; conditions: male Sprague Dawley rats, 3 mg/Kg intravenous, especially at 120 min after administration
# Method: Test 3.—Rat Carrageenan-Induced Hyperalgesia Test
# Male Sprague Dawley rats, randomly distributed into the different groups of treatment, are used. Inflammation is induced by injection of a carrageenan suspension (0.75 mg per paw in 0.05 mL of saline) into the animals' right hind foot pad. One hour 45 min later the test compounds are administered by intravenous route. Two hours after carrageenan injection, hyperalgesia is induced at different times in both hindpaws by using a heat source. At each time, the time of latency till the withdrawal of the paw from the heat source is determined for the control group (vehicle) and the treatment groups, and the result is expressed as the increase of the latency time of the inflammed paw of the treated group versus the control group.
Molecule,% inhibition of inflammation (paw volume AUC vs control) [1] [%],analgesic activity (increase of latency time of the inflamed paw vs control) [2]
"CCOP(=O)([O-])NS(=O)(=O)c1ccc(-n2cnc(Cl)c2-c2ccc(OC)c(F)c2)cc1.[Na+] [Example 4, Ethyl N-[4-[4-chloro-5-(3-fluoro-4-methoxyphenyl)imidazol-1-*yl]phenylsulfonyl]phosphoramidate Sodium Salt]",23.3,–
Diethyl N-[4-[4-chloro-5-(3-fluoro methoxyphenyl)imidazol-1-yl]phenylsulfonyl]phosphoramidate [Example 1],20.7,–
"COc1ccc(-c2c(Cl)ncn2-c2ccc(S(=O)(=O)NP(=O)(O)O)cc2)cc1F [Example 6, N-[4-[4-Chloro-5-(3-fluoro-4-methoxyphenyl)imidazol-1-yl]phenylsulfonyl]phosphoramidic Acid]",34.8,significant analgesic activity
